Assays:
Test in all cases: Reduction of azo substrates over 24 hours at 35° C., microtitration plate (Example 1)
Format in all cases: cell-based
Kocuria rosea = test system: Kocuria rosea; set-up: key to RED (substrate reduced or not): RED indicates whether the substrate is reduced (Y) or not (N); RED indicates whether the substrate is reduced (Y) or not (N); key to Co (growth, absorbance at 660 nm) / Decol (substrate decolourized, decrease in absorbance) / Fluo (fluorescence multiplied by 2 relative to substrate-free control): The symbol “+” means good growth/decolourization/significant increase in fluorescence; The symbol “+/−” means difficult growth; The symbol “−” means that there is no growth/decolourization/significant increase in fluorescence; conditions: K. rosea, substrate 35 mg/l
Procedure, shortened: (§1)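 Strains were incubated 24 h at 35° C. in Trypcase soya broth with azo substrate (35 mg/l), starting from a 0.5 McFarland inoculum. Growth was monitored at 660 nm, while decolourization and fluorescence increase were scored at wavelengths specific to each substrate.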

Geotrichum candidum = test system: Geotrichum candidum; set-up: key to RED (substrate reduced or not): RED indicates whether the substrate is reduced (Y) or not (N); RED indicates whether the substrate is reduced (Y) or not (N); key to Co (growth, absorbance at 660 nm) / Decol (substrate decolourized, decrease in absorbance) / Fluo (fluorescence multiplied by 2 relative to substrate-free control): The symbol “+” means good growth/decolourization/significant increase in fluorescence; The symbol “+/−” means difficult growth; The symbol “−” means that there is no growth/decolourization/significant increase in fluorescence; conditions: G. candidum, substrate 35 mg/l
Procedure, shortened: as §1

[1] = test system: Staphylococcus epidermidis; set-up: key to RED (substrate reduced or not): RED indicates whether the substrate is reduced (Y) or not (N); RED indicates whether the substrate is reduced (Y) or not (N); key to Co (growth, absorbance at 660 nm) / Decol (substrate decolourized, decrease in absorbance) / Fluo (fluorescence multiplied by 2 relative to substrate-free control): The symbol “+” means good growth/decolourization/significant increase in fluorescence; The symbol “+/−” means difficult growth; The symbol “−” means that there is no growth/decolourization/significant increase in fluorescence; conditions: S. epidermidis, substrate 35 mg/l
Procedure, shortened: as §1

Escherichia coli = test system: Escherichia coli; set-up: key to RED (substrate reduced or not): RED indicates whether the substrate is reduced (Y) or not (N); RED indicates whether the substrate is reduced (Y) or not (N); key to Co (growth, absorbance at 660 nm) / Decol (substrate decolourized, decrease in absorbance) / Fluo (fluorescence multiplied by 2 relative to substrate-free control): The symbol “+” means good growth/decolourization/significant increase in fluorescence; The symbol “+/−” means difficult growth; The symbol “−” means that there is no growth/decolourization/significant increase in fluorescence; conditions: E. coli, substrate 35 mg/l
Procedure, shortened: as §1

Pseudomonas aeruginosa = test system: Pseudomonas aeruginosa; set-up: key to RED (substrate reduced or not): RED indicates whether the substrate is reduced (Y) or not (N); RED indicates whether the substrate is reduced (Y) or not (N); key to Co (growth, absorbance at 660 nm) / Decol (substrate decolourized, decrease in absorbance) / Fluo (fluorescence multiplied by 2 relative to substrate-free control): The symbol “+” means good growth/decolourization/significant increase in fluorescence; The symbol “+/−” means difficult growth; The symbol “−” means that there is no growth/decolourization/significant increase in fluorescence; conditions: P. aeruginosa, substrate 35 mg/l
Procedure, shortened: as §1

Cronobacter muytjensii = test system: Cronobacter muytjensii; set-up: key to RED (substrate reduced or not): RED indicates whether the substrate is reduced (Y) or not (N); RED indicates whether the substrate is reduced (Y) or not (N); key to Co (growth, absorbance at 660 nm) / Decol (substrate decolourized, decrease in absorbance) / Fluo (fluorescence multiplied by 2 relative to substrate-free control): The symbol “+” means good growth/decolourization/significant increase in fluorescence; The symbol “+/−” means difficult growth; The symbol “−” means that there is no growth/decolourization/significant increase in fluorescence; conditions: E. muytjensii, substrate 35 mg/l
Procedure, shortened: as §1

Staphylococcus aureus = test system: Staphylococcus aureus; set-up: key to RED (substrate reduced or not): RED indicates whether the substrate is reduced (Y) or not (N); RED indicates whether the substrate is reduced (Y) or not (N); key to Co (growth, absorbance at 660 nm) / Decol (substrate decolourized, decrease in absorbance) / Fluo (fluorescence multiplied by 2 relative to substrate-free control): The symbol “+” means good growth/decolourization/significant increase in fluorescence; The symbol “+/−” means difficult growth; The symbol “−” means that there is no growth/decolourization/significant increase in fluorescence; conditions: S. aureus, substrate 35 mg/l
Procedure, shortened: as §1

Candida albicans = test system: Candida albicans; set-up: key to RED (substrate reduced or not): RED indicates whether the substrate is reduced (Y) or not (N); RED indicates whether the substrate is reduced (Y) or not (N); key to Co (growth, absorbance at 660 nm) / Decol (substrate decolourized, decrease in absorbance) / Fluo (fluorescence multiplied by 2 relative to substrate-free control): The symbol “+” means good growth/decolourization/significant increase in fluorescence; The symbol “+/−” means difficult growth; The symbol “−” means that there is no growth/decolourization/significant increase in fluorescence; conditions: substrate 35 mg/l
Procedure, shortened: as §1

Enterococcus faecalis = test system: Enterococcus faecalis; set-up: key to RED (substrate reduced or not): RED indicates whether the substrate is reduced (Y) or not (N); RED indicates whether the substrate is reduced (Y) or not (N); key to Decol (substrate decolourized, decrease in absorbance) / Fluo (fluorescence multiplied by 2 relative to substrate-free control) / Co (growth, absorbance at 660 nm): The symbol “+” means good growth/decolourization/significant increase in fluorescence; The symbol “+/−” means difficult growth; The symbol “−” means that there is no growth/decolourization/significant increase in fluorescence; conditions: E. faecalis, substrate 35 mg/l
Procedure, shortened: as §1

Acinetobacter baumanii = test system: Acinetobacter baumanii; set-up: key to RED (substrate reduced or not): RED indicates whether the substrate is reduced (Y) or not (N); RED indicates whether the substrate is reduced (Y) or not (N); key to Decol (substrate decolourized, decrease in absorbance) / Fluo (fluorescence multiplied by 2 relative to substrate-free control) / Co (growth, absorbance at 660 nm): The symbol “+” means good growth/decolourization/significant increase in fluorescence; The symbol “+/−” means difficult growth; The symbol “−” means that there is no growth/decolourization/significant increase in fluorescence; conditions: A. baumannii, substrate 35 mg/l
Procedure, shortened: as §1

Compound | Co (growth, absorbance at 660 nm) (Kocuria rosea) | Decol (substrate decolourized, decrease in absorbance) (Kocuria rosea) | Fluo (fluorescence multiplied by 2 relative to substrate-free control) (Kocuria rosea) | Co (growth, absorbance at 660 nm) (Geotrichum candidum) | Decol (substrate decolourized, decrease in absorbance) (Geotrichum candidum) | Fluo (fluorescence multiplied by 2 relative to substrate-free control) (Geotrichum candidum) | RED (substrate reduced or not) (Geotrichum candidum) | Co (growth, absorbance at 660 nm) [1] | Decol (substrate decolourized, decrease in absorbance) [1] | Fluo (fluorescence multiplied by 2 relative to substrate-free control) [1] | RED (substrate reduced or not) [1] | Co (growth, absorbance at 660 nm) (Escherichia coli) | Decol (substrate decolourized, decrease in absorbance) (Escherichia coli) | Fluo (fluorescence multiplied by 2 relative to substrate-free control) (Escherichia coli) | RED (substrate reduced or not) (Escherichia coli) | Co (growth, absorbance at 660 nm) (Pseudomonas aeruginosa) | Decol (substrate decolourized, decrease in absorbance) (Pseudomonas aeruginosa) | Fluo (fluorescence multiplied by 2 relative to substrate-free control) (Pseudomonas aeruginosa) | RED (substrate reduced or not) (Pseudomonas aeruginosa) | Co (growth, absorbance at 660 nm) (Cronobacter muytjensii) | other results
O=S(=O)([O-])c1ccc(N=Nc2c(O)ccc3cc(S(=O)(=O)[O-])ccc23)cc1.[Na+].[Na+] [Sunset Yellow] | − | − | − | + | − | − | N | + | − | − | N | + | − | − | N | + | − | − | N | + | Decol (substrate decolourized, decrease in absorbance) (Cronobacter muytjensii): −; Fluo (fluorescence multiplied by 2 relative to substrate-free control) (Cronobacter muytjensii): −; RED (substrate reduced or not) (Cronobacter muytjensii): N; Co (growth, absorbance at 660 nm) (Staphylococcus aureus): +; Decol (substrate decolourized, decrease in absorbance) (Staphylococcus aureus): −; Fluo (fluorescence multiplied by 2 relative to substrate-free control) (Staphylococcus aureus): −; RED (substrate reduced or not) (Staphylococcus aureus): N; Co (growth, absorbance at 660 nm) (Candida albicans): +; Decol (substrate decolourized, decrease in absorbance) (Candida albicans): +; Fluo (fluorescence multiplied by 2 relative to substrate-free control) (Candida albicans): +; RED (substrate reduced or not) (Candida albicans): Y; Co (growth, absorbance at 660 nm) (Enterococcus faecalis): +; Decol (substrate decolourized, decrease in absorbance) (Enterococcus faecalis): +; Fluo (fluorescence multiplied by 2 relative to substrate-free control) (Enterococcus faecalis): +; RED (substrate reduced or not) (Enterococcus faecalis): Y; Co (growth, absorbance at 660 nm) (Acinetobacter baumanii): +; Decol (substrate decolourized, decrease in absorbance) (Acinetobacter baumanii): −; Fluo (fluorescence multiplied by 2 relative to substrate-free control) (Acinetobacter baumanii): −; RED (substrate reduced or not) (Acinetobacter baumanii): N
Nc1ccc(/N=N/c2ccc(S(=O)(=O)O)cc2)cc1S(=O)(=O)O [4-aminoazobenzene-3,4′-disulfonic acid, 4-Aminoazobenzene-3,4′-disulfonic acid] | − | − | − | + | − | − | N | + | − | − | N | + | − | − | N | + | − | − | N | + | Decol (substrate decolourized, decrease in absorbance) (Cronobacter muytjensii): −; Fluo (fluorescence multiplied by 2 relative to substrate-free control) (Cronobacter muytjensii): −; RED (substrate reduced or not) (Cronobacter muytjensii): N; Co (growth, absorbance at 660 nm) (Staphylococcus aureus): +; Decol (substrate decolourized, decrease in absorbance) (Staphylococcus aureus): −; Fluo (fluorescence multiplied by 2 relative to substrate-free control) (Staphylococcus aureus): −; RED (substrate reduced or not) (Staphylococcus aureus): N; Co (growth, absorbance at 660 nm) (Candida albicans): +; Decol (substrate decolourized, decrease in absorbance) (Candida albicans): +; Fluo (fluorescence multiplied by 2 relative to substrate-free control) (Candida albicans): +; RED (substrate reduced or not) (Candida albicans): Y; Co (growth, absorbance at 660 nm) (Enterococcus faecalis): +; Decol (substrate decolourized, decrease in absorbance) (Enterococcus faecalis): +; Fluo (fluorescence multiplied by 2 relative to substrate-free control) (Enterococcus faecalis): +; RED (substrate reduced or not) (Enterococcus faecalis): Y; Co (growth, absorbance at 660 nm) (Acinetobacter baumanii): +; Decol (substrate decolourized, decrease in absorbance) (Acinetobacter baumanii): −; Fluo (fluorescence multiplied by 2 relative to substrate-free control) (Acinetobacter baumanii): −; RED (substrate reduced or not) (Acinetobacter baumanii): N

From patent US20150125889A1, “IN VITRO DETECTION OF MICROORGANISMS WITH AZOREDUCTASE ACTIVITY” (BIOMÉRIEUX, priority 2012, published 2015)
